These results are taken from ChEMBL document CHEMBL1201862, “PubChem BioAssay data set” (2004).

Structures are written as SMILES.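 Test compounds were applied to cells in 96-well plates for 48 hours at 5 doses. Abbreviation: GI50, concentration required for 50% inhibition of growth.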 Calls of active or inactive are those of the source. Rule as the data show it: active = GI50 up to about 1.1 µM and inactive = higher.

Some test systems named below: SF-295; SNB-75; SK-MEL-2; HCT-116; MDA-MB-435; Malme-3M; CAKI-1; SF-539; ACHN; MOLT-4; RPMI-8226; HOP-92; SK-MEL-28; SNB-19; NCI-H23; LOX IMVI; HL-60; DU-145; SW-620; 786-0.
Holding throughout (assay): inhibition of tumour cell growth, NCI panel, 48 h

Regarding `CCN1CCN=c2c3cc(OC)ccc3n3cnc4ccc1c2c43`, the GI50 in the test on SF-295 was 0.26 µM (active); with SNB-75, 0.456 µM (active); in the test on SK-MEL-2 it was 0.238 µM (active); in the test with HCT-116 it was 0.0565 µM (active); with MDA-MB-435, 0.197 µM (active); in the test with Malme-3M, 0.267 µM (active). Moreover, the GI50 was 0.34 µM (active) in the test with CAKI-1; 0.123 µM (active) in the test with SF-539; 0.131 µM (active) with ACHN; 0.0879 µM (active) in the test on MOLT-4; 0.171 µM (active) in the test on RPMI-8226; 0.776 µM (active) in the test with HOP-92. For the same molecule, the GI50 in the test on SK-MEL-28 is 0.506 µM (active); in the test on SNB-19, 0.301 µM (active); with NCI-H23, 0.328 µM (active); in the test on LOX IMVI, 0.154 µM (active); in the test on HL-60 it was 0.206 µM (active); in the test on DU-145, 0.483 µM (active). In addition, the figures for the GI50 in the test on SW-620 and in the test on 786-0 were 0.824 µM (active) and 0.0759 µM (active), respectively.

On to `CN(C)CCCNC(=O)c1cc(NC(=O)CCCn2c3ccccc3c3ccccc32)cn1C`, for which the GI50 was 25.9 µM (inactive) with SF-295; 43 µM (inactive) with SNB-75; 34.8 µM (inactive) in the test on SK-MEL-2; 25.9 µM (inactive) in the test on HCT-116; 24.3 µM (inactive) in the test on MDA-MB-435; 17.2 µM (inactive) in the test on Malme-3M. In addition, the GI50 in the test on CAKI-1 is 21.8 µM (inactive); in the test with SF-539 it was 71.3 µM (inactive); in the test with ACHN, 26.9 µM (inactive); in the test on MOLT-4 it was 11.4 µM (inactive); in the test with RPMI-8226, 17.1 µM (inactive); in the test on HOP-92, 2.13 µM (inactive). Further, the GI50 with SK-MEL-28 was 49.7 µM (inactive); in the test on SNB-19, 25 µM (inactive); in the test with NCI-H23 it was 31.8 µM (inactive); in the test with LOX IMVI, 31 µM (inactive); in the test on HL-60, 22.5 µM (inactive); in the test with DU-145, > 100 µM (inactive). The GI50 in the test with SW-620 is > 100 µM (inactive); in the test on 786-0, 80.9 µM (inactive).

Turning to `CCOC(=O)N1CCN(Cc2cc(=O)n3ccc(C)cc3n2)CC1`, the GI50 with SF-295, in the test with SNB-75, in the test on SK-MEL-2, with HCT-116, in the test on MDA-MB-435 and in the test on Malme-3M was > 100 µM (inactive) in each case. For the same molecule, the GI50 in the test on CAKI-1, with SF-539, in the test with ACHN, with MOLT-4, with RPMI-8226 and in the test with HOP-92 was > 100 µM (inactive) each time. Further, the GI50 in the test with SK-MEL-28, in the test with SNB-19, in the test with NCI-H23, with LOX IMVI, in the test on HL-60 and in the test with DU-145 was > 100 µM (inactive) each time. Moreover, the GI50 in the test on SW-620 and in the test on 786-0 was > 100 µM (inactive) in each case.

For the molecule `COc1ncc(C=C(C#N)C#N)c(OC)n1`, the GI50 was 85.5 µM (inactive) in the test with SF-295; > 100 µM (inactive) in the test with SNB-75; 32.3 µM (inactive) in the test with SK-MEL-2; 26.1 µM (inactive) in the test on HCT-116; 26 µM (inactive) in the test with MDA-MB-435; 35.2 µM (inactive) in the test with Malme-3M. Besides, the GI50 with CAKI-1 was 36.1 µM (inactive); with SF-539, 30.8 µM (inactive); with ACHN it was 48.5 µM (inactive); with MOLT-4 it was 33.3 µM (inactive); in the test on RPMI-8226, 24 µM (inactive); in the test on HOP-92 it was > 100 µM (inactive). Further, the GI50 in the test on SK-MEL-28 was 44.8 µM (inactive); in the test with SNB-19, 52.6 µM (inactive); with NCI-H23, 31.3 µM (inactive); in the test with LOX IMVI it was 30.2 µM (inactive); with HL-60, 16.7 µM (inactive); in the test on DU-145 it was 52.5 µM (inactive). The figures for the GI50 in the test with SW-620 and with 786-0 were 26.2 µM (inactive) and 19.3 µM (inactive), respectively.

For the molecule `Cc1ccc(S(=O)(=O)N(CC(O)COc2ccccc2)c2c(F)c(F)c(F)c(F)c2F)cc1` (stereo not given), the GI50 was 17.1 µM (inactive) with SF-295; 16.3 µM (inactive) in the test with SNB-75; 16.4 µM (inactive) with SK-MEL-2; 17 µM (inactive) in the test on HCT-116; 16.4 µM (inactive) with MDA-MB-435; 22.8 µM (inactive) in the test on Malme-3M. Moreover, the GI50 with CAKI-1 is 0.237 µM (active); with SF-539 it was 19.8 µM (inactive); with ACHN it was 15.7 µM (inactive); with MOLT-4, 21.6 µM (inactive); with RPMI-8226, 1.04 µM (active); in the test on HOP-92, 8.49 µM (inactive). Besides, the GI50 with SK-MEL-28 was 16.9 µM (inactive); in the test on SNB-19, 18.5 µM (inactive); in the test with NCI-H23 it was 14.4 µM (inactive); in the test with LOX IMVI, 13.9 µM (inactive); in the test with HL-60 it was 6.32 µM (inactive); with DU-145 it was 22.3 µM (inactive). The GI50 with SW-620 was 18.7 µM (inactive); in the test on 786-0, 19.5 µM (inactive).

For `CCOC(=O)CSc1nc(N)c2c(-c3ccccc3)c3c(nc2n1)CCCC3`, the GI50 with SF-295 was > 100 µM (inactive); in the test on SNB-75, 98.6 µM (inactive); in the test on SK-MEL-2, > 100 µM (inactive); in the test on HCT-116 it was > 100 µM (inactive); in the test on MDA-MB-435, > 100 µM (inactive); with Malme-3M, > 100 µM (inactive). The GI50 in the test on CAKI-1, with SF-539, with ACHN, with MOLT-4, in the test with RPMI-8226 and in the test with HOP-92 was > 100 µM (inactive) throughout. Besides, the GI50 in the test on SK-MEL-28, in the test on SNB-19, with NCI-H23, in the test with LOX IMVI, in the test on HL-60 and in the test with DU-145 was > 100 µM (inactive) in each case. Moreover, the GI50 in the test with SW-620 and in the test with 786-0 was > 100 µM (inactive) each time.

Regarding `O=C1N[C@@H]([C@H]2CC[C@H](Cl)CN2)C(=O)N[C@H]1[C@H]1CC[C@H](Cl)CN1`, the GI50 with SF-295 is 0.169 µM (active); in the test on SNB-75, 0.507 µM (active); with SK-MEL-2, 2.56 µM (inactive); in the test with HCT-116, 0.743 µM (active); in the test on MDA-MB-435 it was 1.06 µM (active); in the test on Malme-3M, 0.836 µM (active). Moreover, the GI50 is 0.261 µM (active) with CAKI-1; 0.357 µM (active) with SF-539; 0.1 µM (active) in the test on ACHN; 0.103 µM (active) with MOLT-4; 1.32 µM (inactive) with RPMI-8226; 0.757 µM (active) in the test with HOP-92. Besides, the GI50 in the test on SK-MEL-28 was 4.32 µM (inactive); in the test with SNB-19, 1.37 µM (inactive); in the test with NCI-H23 it was 0.292 µM (active); in the test with LOX IMVI it was 0.237 µM (active); in the test on HL-60, 0.1 µM (active); in the test on DU-145 it was 0.108 µM (active). Moreover, the values for the GI50 with SW-620 and with 786-0 were 0.962 µM (active) and 0.1 µM (active), respectively.

`CN1CCCN2CCN(C)CCN(CC1)CC2`: the GI50 in the test on SF-295, in the test with SNB-75, with SK-MEL-2, in the test on HCT-116, in the test on MDA-MB-435 and in the test on Malme-3M was > 100 µM (inactive) each time. Moreover, the GI50 in the test on CAKI-1 is > 100 µM (inactive); in the test with SF-539 it was 0.0366 µM (active); with ACHN, > 100 µM (inactive); in the test with MOLT-4, > 100 µM (inactive); in the test on RPMI-8226, > 100 µM (inactive); in the test with HOP-92 it was > 100 µM (inactive). Further, the GI50 in the test with SK-MEL-28, in the test on SNB-19, in the test on NCI-H23, in the test with LOX IMVI, in the test with HL-60 and in the test with DU-145 was > 100 µM (inactive) each time. Moreover, the GI50 in the test on SW-620 and in the test with 786-0 was > 100 µM (inactive) in each case.

Take `CC(=O)O[C@H]1CCC2[C@@H]3CC[C@]4(C)CC(=O)C=C[C@]4(C)C3CC[C@@]21C` (stereo not given in full): the GI50 in the test on SF-295 is 53.3 µM (inactive); in the test on SNB-75, 46 µM (inactive); in the test with SK-MEL-2, 20.8 µM (inactive); with HCT-116 it was 16.8 µM (inactive); in the test on MDA-MB-435 it was 40.6 µM (inactive); in the test with Malme-3M, 19.4 µM (inactive). Besides, the GI50 was 83.4 µM (inactive) with CAKI-1; 17.7 µM (inactive) in the test on SF-539; 49 µM (inactive) in the test on ACHN; 23.2 µM (inactive) in the test with MOLT-4; 23 µM (inactive) in the test on RPMI-8226; 48.2 µM (inactive) with HOP-92. For the same molecule, the GI50 in the test with SK-MEL-28 was 18.5 µM (inactive); in the test with SNB-19, 51.3 µM (inactive); with NCI-H23 it was 21.9 µM (inactive); in the test on LOX IMVI, 16.9 µM (inactive); in the test with HL-60 it was 20.4 µM (inactive); in the test on DU-145, > 100 µM (inactive). Besides, the GI50 with SW-620 was 18.3 µM (inactive); in the test on 786-0, 34.4 µM (inactive).

For `CCN(CC)CCNc1ccc2nnn3c4ccc([N+](=O)[O-])cc4c(=O)c1c23`, the GI50 is 5.82 µM (inactive) with SF-295; 4.91 µM (inactive) with SNB-75; 9.75 µM (inactive) in the test with SK-MEL-2; 3.55 µM (inactive) in the test on HCT-116; > 100 µM (inactive) with MDA-MB-435; 9.12 µM (inactive) in the test on Malme-3M. The GI50 is 4.14 µM (inactive) in the test with CAKI-1; 3.35 µM (inactive) in the test with SF-539; 3.28 µM (inactive) in the test with ACHN; 2.13 µM (inactive) with MOLT-4; 6.15 µM (inactive) in the test on RPMI-8226; 11.3 µM (inactive) in the test on HOP-92. The GI50 with SK-MEL-28 was 14 µM (inactive); in the test on SNB-19 it was 6.43 µM (inactive); in the test on NCI-H23 it was 10.8 µM (inactive); in the test with LOX IMVI it was 4.58 µM (inactive); in the test with HL-60, 6.52 µM (inactive); in the test with DU-145, 7.69 µM (inactive). The GI50 in the test with SW-620 was 3 µM (inactive); in the test with 786-0, 4.34 µM (inactive).
